According to patent US20050004126A1 (priority 2001, published 2005):
Where “and” joins values, the source holds several entries; their conditions need not be identical. Identical values can stand only once. Counter-ions that a name gives are not always drawn. Like-named read-outs stand apart in the source and are kept apart here.

Legend:
[1] = biological target: T1, MMP-1FL (full-length interstitial collagenase) (Homo sapiens, UniProt P03956); assay: Thiopeptolide hydrolysis assay, MMP-1; format: biochemical; details: read-out: MMP01 IC50
T1 sequence (P03956 100-469): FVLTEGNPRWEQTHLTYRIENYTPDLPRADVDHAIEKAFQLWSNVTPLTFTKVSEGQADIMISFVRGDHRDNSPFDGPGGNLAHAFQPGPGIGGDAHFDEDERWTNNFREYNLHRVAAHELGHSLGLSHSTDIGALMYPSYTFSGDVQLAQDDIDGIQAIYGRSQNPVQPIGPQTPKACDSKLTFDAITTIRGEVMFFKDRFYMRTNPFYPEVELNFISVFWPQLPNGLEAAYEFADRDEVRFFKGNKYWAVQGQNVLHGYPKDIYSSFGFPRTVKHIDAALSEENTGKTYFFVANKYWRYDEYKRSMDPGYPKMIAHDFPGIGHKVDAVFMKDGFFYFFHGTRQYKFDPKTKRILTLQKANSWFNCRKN
Method: (§1) They measure the amount by which a test compound reduces the hydrolysis of a thiopeptolide substrate caused by a matrix metalloproteinase enzyme.
Thiopeptolide substrates show virtually no decomposition or hydrolysis in the absence of a matrix metalloproteinase enzyme. A typical thiopeptolide substrate commonly utilized for assays is Ac-Pro-Leu-Gly-thioester-Leu-Leu-Gly-OEt. A 100 μL assay mixture will contain 50 mM of 2-morpholinoethane sulfonic acid monohydrate (MES, pH 6.0) 10 mM CaCl2, 100 μM thiopeptolide substrate, and 1 mM 5,5′-dithio-bis-(2-nitro-benzoic acid) (DTNB). […] The change in absorbance at 405 nm is monitored on a Thermo Max microplate reader (moleucular Devices, Menlo Park, Calif.) at room temperature (22° C.). […] Assays are carried out with and without matrix metalloproteinase inhibitor compounds, and the amount of hydrolysis is compared for a determination of inhibitory activity of the test compounds.

[2] = biological target: MMP-3CD (catalytic domain of stromelysin) (Homo sapiens, UniProt P08254); assay: Thiopeptolide hydrolysis assay, MMP-3; format: biochemical; details: read-out: MMP03 IC50;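 note: inhibition of thiopeptolide substrate (100 µM) cleavage by the MMP-3 catalytic domain, detected with DTNB at pH 6.0 with CaCl2, hydrolysis compared against runs lacking inhibitor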
MMP-3CD (catalytic domain of stromelysin), sequence (P08254 100-272 limits assumed): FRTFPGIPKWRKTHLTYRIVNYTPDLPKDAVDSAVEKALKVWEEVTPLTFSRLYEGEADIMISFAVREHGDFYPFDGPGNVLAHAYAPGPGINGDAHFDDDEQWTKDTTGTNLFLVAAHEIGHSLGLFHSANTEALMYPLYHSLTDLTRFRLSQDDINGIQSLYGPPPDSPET
Method: as §1
(§2) Thiopeptolide substrates show virtually no decomposition or hydrolysis in the absence of a matrix metalloproteinase enzyme. A typical thiopeptolide substrate commonly utilized for assays is Ac-Pro-Leu-Gly-thioester-Leu-Leu-Gly-OEt. A 100 μL assay mixture will contain 50 mM of 2-morpholinoethane sulfonic acid monohydrate (MES, pH 6.0) 10 mM CaCl2, 100 μM thiopeptolide substrate, and 1 mM 5,5′-dithio-bis-(2-nitro-benzoic acid) (DTNB). […] Assays are carried out with and without matrix metalloproteinase inhibitor compounds, and the amount of hydrolysis is compared for a determination of inhibitory activity of the test compounds.

[3] = biological target: MMP-13CD (catalytic domain of collagenase 3) (Homo sapiens, UniProt P45452); assay: Thiopeptolide hydrolysis assay, MMP-13;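 note: inhibition of enzymatic thiopeptolide substrate cleavage (100 µM) in pH 6.0 MES buffer with CaCl2 and DTNB, comparing hydrolysis with versus without inhibitor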
Method: as §1, §2

IC50 ([1]; Table 1b) | IC50 ([2]; Table 1b) | IC50 ([3]; MMP13 IC50 (μM), Table 1b) | Compound | further results
> 30 µM | > 30 µM | 0.24 µM | COC(=O)c1ccc(Cn2c(=O)c(C)c3sc(C(=O)NCc4ccc(F)cc4)cn3c2=O)cc1Cl | –
– | – | – | COc1ccc(C(=O)OCc2ccc3nsnc3c2)cc1C(=O)OCc1ccc2nsnc2c1 | IC50 ([1]; Table II): 30 µM
> 30 µM | 19 µM | 0.0715 µM | COC(=O)c1ccc(Cn2c(=O)c(C)c3sc(C(=O)NCc4cccc(F)c4)cn3c2=O)cc1 | –
> 100 µM | 17 µM | 0.018 µM | COC(=O)c1ccc(Cn2c(=O)c(C)c3sc(C(=O)NCc4ccc(F)cc4)cn3c2=O)cc1 | –
> 100 µM | 18 µM | 0.018 µM | COC(=O)c1ccc(Cn2c(=O)c(C)c3sc(C(=O)NCc4ccc(F)cc4)cn3c2=O)cc1C | –
> 100 µM | 65 µM | 0.0106 µM | COC(=O)c1ccc(Cn2c(=O)c(C)c3sc(C(=O)NCc4ccc(OC)cc4)cn3c2=O)cc1 | –
> 30 µM | > 30 µM | 6.7 µM | O=C(NCc1ccccc1)c1cn2c(=O)n(C(=O)c3ccccc3)c(=O)cc2s1 | –
> 30 µM | – | 0.0046 µM | Cc1c(=O)n(Cc2ccccc2)c(=O)n2cc(C(=O)NCc3ccc4nsnc4c3)sc12 | –
> 100 µM | > 30 µM | 0.315 µM | CC#CCn1c(=O)c(C)c2sc(C(=O)NCc3ccc(F)cc3)cn2c1=O | –
> 30 µM | > 30 µM | 0.293 µM | O=C(NCc1ccccc1)c1cn2c(=O)n(Cc3ccc(Cl)c(Cl)c3)c(=O)cc2s1 | –
> 30 µM | 43 µM | 0.415 µM | O=C(NCc1ccccc1)c1cn2c(=O)n(Cc3ccc(Cl)cc3)c(=O)cc2s1 | –
> 100 µM | 25 µM | 0.023 µM | Cc1c(=O)n(Cc2ccc(C#N)cc2)c(=O)n2cc(C(=O)NCc3ccc(F)cc3)sc12 | –
> 30 µM | 18 µM | 0.086 µM | Cc1c(=O)n(Cc2ccc3cc(F)ccc3n2)c(=O)n2cc(C(=O)NCc3ccc(F)cc3)sc12 | –
> 30 µM | > 30 µM | 0.012 µM | Cc1c(=O)n(Cc2ccc3oc(=O)ccc3c2)c(=O)n2cc(C(=O)NCc3ccc(F)cc3)sc12 | –
> 100 µM | 16 µM | 0.0009 µM | Cc1c(=O)n(Cc2ccc(-c3nn[nH]n3)cc2)c(=O)n2cc(C(=O)NCc3ccc(F)cc3)sc12 | –
> 100 µM | > 30 µM | 0.77 µM | Cc1nc(Cn2c(=O)c(C)c3sc(C(=O)NCc4ccc(F)cc4)cn3c2=O)cs1 | –
> 30 µM | > 30 µM | 0.011 µM | Cc1c(=O)n(Cc2ccc(C(=O)N3CCOCC3)cc2)c(=O)n2cc(C(=O)NCc3ccc(F)cc3)sc12 | –

IC50 ([1]; Table 1b) | IC50 ([2]; Table 1b) | IC50 ([3]; MMP13 IC50 (μM), Table 1b) | Compound | further results
– | – | – | O=C(OCc1ccc2nsnc2c1)c1cccc(C(=O)OCc2ccc3nsnc3c2)c1 | IC50 ([1]; Table II): > 100 µM; IC50 ([2]; Table II): > 30 µM
– | – | – | O=C(O)c1ccc(COC(=O)c2cccc(C(=O)NCc3ccc4c(c3)OCO4)c2)cc1 | IC50 ([1]; Table II): > 100 µM; IC50 ([3]; MMP13 IC50 (nM), Table II): 0.033 µM
– | – | – | CC(C)Oc1ccc(C(=O)NCc2ccc3c(c2)OCO3)cc1C(=O)NCc1ccc2c(c1)OCO2 | IC50 ([1]; Table II): 71 µM; IC50 ([3]; MMP13 IC50 (nM), Table II): 3.75 µM
– | – | – | COc1ccc(CNC(=O)c2ccc(OC)c(C(=O)NCc3ccc(OC)cc3)c2)cc1 [4-Methoxy-N,N′-bis-(4-methoxybenzyl)-isophthalamide] [listing 1 of 2 here] | IC50 ([2]; Table II): 82 µM; IC50 ([3]; MMP13 IC50 (nM), Table II): 0.25 µM
– | – | – | COc1ccc(CNC(=O)c2ccc(OC)c(C(=O)NCc3ccc(OC)cc3)c2)cc1 [4-Methoxy-N,N′-bis-(4-methoxybenzyl)-isophthalamide] [listing 2 of 2 here] | IC50 ([1]; Table II): > 100 µM
– | – | – | O=C(Nc1cccc(CO)c1)c1cccc(C(=O)Nc2cccc(CO)c2)c1 [N,N′-Bis-(3-hydroxymethyl-phenyl)-isophthalamide] | IC50 ([1]; Table II): > 100 µM; IC50 ([3]; MMP13 IC50 (nM), Table II): 7.8 µM
– | 55.5 µM | 0.002 µM | Cc1c(=O)n(Cc2ccc(C(=O)O)cc2)c(=O)n2cc(C(=O)NCc3ccc(F)cc3)sc12 [Sodium Salt] | –
– | – | – | O=C(NCc1ccc2c(c1)OCO2)c1cccc(C(=O)NCc2ccc3c(c2)OCO3)c1 [Synthesis Example 11, N,N-Bis-1,3-benzodioxol-5-ylmethyl-isophthalamide] | IC50 ([2]; Table II): 69 µM and 81 µM; IC50 ([3]; MMP13 IC50 (nM), Table II): 0.33 µM and 0.683 µM
– | – | – | COc1ccc(CC#Cc2ccc3c(c2)c(=O)n(Cc2ccc(C(=O)O)cc2)c(=O)n3C)cc1 [Synthesis Example 68, 4-{6-[3-(4-Methoxy-phenyl)-prop-1-ynyl]-1-methyl-2,4-dioxo-1,4-dihydro-2H-quinazolin-3-ylmethyl}-benzoic acid] | IC50 ([3]; IC50 μM, Table VII, MMP-13): 0.0006 µM
– | – | – | Cn1c(=O)n(Cc2ccc(C(=O)O)cc2)c(=O)c2cc(C#CCc3ccccc3)ncc21 [Synthesis Example 69, 4-[1-Methyl-2,4-dioxo-6-(3-phenyl-prop-1-ynyl)-1,4-dihydro-2H-pyrido[3,4-d]pyrimidin-3-ylmethyl]-benzoic acid] | IC50 ([3]; IC50 μM, Table VII, MMP-13): 0.0065 µM
– | – | – | COc1ccc(CC#Cc2cc3c(=O)n(Cc4ccc(C(=O)O)cc4)c(=O)n(C)c3cn2)cc1 [Synthesis Example 70, 4-{6-[3-(4-Methoxy-phenyl)-prop-1-ynyl]-1-methyl-2,4-dioxo-1,4-dihydro-2H-pyrido[3,4-d]pyrimidin-3-ylmethyl}-benzoic acid] | IC50 ([3]; IC50 μM, Table VII, MMP-13): 0.0012 µM
– | – | – | O=c1c2cc(C#CCc3ccccc3)ccc2n2cnnc2n1Cc1ccccc1 [Synthesis Example 71, 4-Benzyl-7-(3-phenyl-prop-1-ynyl)-4H-[1,2,4]triazolo[4,3-a]quinazolin-5-one] | IC50 ([3]; IC50 μM, Table VII, MMP-13): 0.0055 µM
– | – | – | COc1ccc(CC#Cc2ccc3c(c2)c(=O)n(Cc2ccccc2)c2nncn32)cc1 [Synthesis Example 72, 4-Benzyl-7-[(4-methoxyphenyl)-prop-1-ynyl]-4H-[1,2,4]-triazolo[4,3-a]quinazolin-5-one] | IC50 ([3]; IC50 μM, Table VII, MMP-13): 0.0015 µM
– | – | – | COC(=O)c1ccc(Cn2c(=O)c3cc(C#CCc4ccc(OC)cc4)ccc3n3cnnc23)cc1 [Synthesis Example 73, Methyl 4-{7-[3-(4-methoxy-phenyl)-prop-1-ynyl]-5-oxo-5H-[1,2,4]triazolo[4,3-a]quinazolin-4-ylmethyl}-benzoate] | IC50 ([3]; IC50 μM, Table VII, MMP-13): 0.0017 µM
– | – | – | O=C(O)c1ccc(Cn2c(=O)c3cc(C#CCc4ccccc4)ccc3n3cnnc23)cc1 [Synthesis Example 74, 4-[5-Oxo-7-(3-phenyl-prop-1-ynyl)-5H-[1,2,4]triazolo[4,3-a]quinazolin-4-ylmethyl]-benzoic acid] | IC50 ([3]; IC50 μM, Table VII, MMP-13): 0.001 µM
– | – | – | Cn1c(=O)n(Cc2ccc(C(=O)O)cc2)c(=O)c2cc(C#Cc3ccccc3)ccc21 [Synthesis Example 75, 4-(1-Methyl-2,4-dioxo-6-(2-phenylethynyl)-1,4-dihydro-2H-quinazolin-3-ylmethyl)-benzoic acid] | IC50 ([3]; IC50 μM, Table VII, MMP-13): 1.34 µM
– | 20.5 µM | 0.0208 µM | COc1ccc(CNC(=O)c2cn3c(=O)n(Cc4ccccc4)c(=O)c(C)c3s2)cn1 [hydrochloride] | –

Compound | IC50 ([1]; Table 1b) | IC50 ([2]; Table 1b) | IC50 ([3]; MMP13 IC50 (μM), Table 1b) | further results
COC(=O)c1ccc(Cn2c(=O)c(C)c3sc(C(=O)NCc4ccc(F)cc4)cn3c2=O)cc1OC | > 30 µM | – | 0.099 µM | –
Cc1c(=O)n(Cc2ccc(C(=O)OCCN(C)C)cc2)c(=O)n2cc(C(=O)NCc3ccc(F)cc3)sc12 | > 100 µM | > 30 µM | 0.094 µM | –
Cc1c(=O)n(Cc2ccc(Cl)cc2)c(=O)n2cc(C(=O)NCc3ccncc3)sc12 | > 30 µM | > 30 µM | 0.053 µM | –
COC(=O)Nc1cc(Cn2c(=O)c(C)c3sc(C(=O)NCc4ccc(F)cc4)cn3c2=O)on1 | > 30 µM | > 30 µM | 0.205 µM | –
Cc1c(=O)n(Cc2ccccc2)c(=O)n2cc(C(=O)NCc3cccnc3)sc12 [hydrochloride] | > 30 µM | – | 0.26 µM | –
